This passage reports TGI and GI50 results from PubChem BioAssay (NCI).

The structures appear in SMILES notation.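 Growth conditions: 96-well plates. Treatment: test compound, 48 hours, 5 concentrations. Analysis: linear interpolation between bracketing concentrations; unreached endpoints set to highest concentration. At the GI50, growth is halved. The concentration for full growth arrest is given as TGI.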

Among the test systems are NCI-H522 lung; SK-MEL-2 melanoma; CAKI-1 renal; DU-145 prostate; BT-549 breast; HL-60(TB) leukemia; A549 NSCLC; UACC-62 melanoma; SF-539 CNS; PC-3 prostate.
Common to all, as to assay: growth of human tumour cells (NCI), 48 h

Turning to `CN(C)CCCN1c2ccc3ccccc3c2Sc2cccc(Cl)c21`, the TGI in the assay on NCI-H522 lung was found to be 10.5 µM; in the assay on SK-MEL-2 melanoma, 3.75 µM; in the assay on CAKI-1 renal, 16.6 µM; in the assay on DU-145 prostate, 14.8 µM; with BT-549 breast it was 42.7 µM; with HL-60(TB) leukemia, 3.99 µM. The TGI worked out at 19 µM in the assay on A549 NSCLC, 4.82 µM in the assay on UACC-62 melanoma, 20.7 µM in the assay with SF-539 CNS and 11.8 µM in the assay on PC-3 prostate.
As for `O=C1N[C@@H](c2c[nH]c3ccc(Br)cc23)C(=O)N[C@H]1c1c[nH]c2ccc(Br)cc12`, the TGI in the assay with NCI-H522 lung was 24 µM; in the assay with SK-MEL-2 melanoma, 29.4 µM; in the assay on CAKI-1 renal it was 30.4 µM; with DU-145 prostate, 27.3 µM; in the assay on BT-549 breast, 35.4 µM; in the assay with HL-60(TB) leukemia, 26.6 µM. Moreover, the TGI with A549 NSCLC was 33.8 µM; in the assay on UACC-62 melanoma it was 23.2 µM; with SF-539 CNS it was 18.9 µM; with PC-3 prostate it was 16.1 µM.
For the compound `O=S(=O)(CC#CCS(=O)(=O)c1ccccc1)c1ccccc1`, the TGI in the assay with NCI-H522 lung was 1.63 µM; in the assay on SK-MEL-2 melanoma, 19.4 µM; with CAKI-1 renal it was 3.42 µM; with DU-145 prostate, 17.4 µM; with BT-549 breast, 11.8 µM; in the assay on HL-60(TB) leukemia, 16.1 µM. For the same compound, the TGI in the assay with A549 NSCLC is 37.5 µM; in the assay on UACC-62 melanoma, 11.5 µM; in the assay on SF-539 CNS it was 6.86 µM; in the assay with PC-3 prostate, 22.3 µM.
In the case of `COc1cc(C2c3cc4c(c(O)c3C(=O)C3CCC(=O)N32)OCO4)cc(OC)c1OC` (stereo not given), the TGI in the assay with NCI-H522 lung was 38.9 µM; with SK-MEL-2 melanoma, more than 100 µM; in the assay on CAKI-1 renal it was more than 100 µM; in the assay with DU-145 prostate it was more than 100 µM; in the assay on BT-549 breast it was 92.5 µM; in the assay on HL-60(TB) leukemia it was more than 100 µM. In addition, the TGI with A549 NSCLC, in the assay with UACC-62 melanoma, in the assay with SF-539 CNS and with PC-3 prostate was more than 100 µM each time.
As to `Nc1cc(N)c2nc(-c3ccccc3)c(Sc3ccc(F)cc3)nc2c1`, the GI50 is more than 100 µM in the assay on NCI-H522 lung; 38.4 µM with SK-MEL-2 melanoma; 18.1 µM in the assay on CAKI-1 renal; 19.8 µM in the assay with DU-145 prostate; 22 µM in the assay with BT-549 breast; 39.3 µM in the assay with HL-60(TB) leukemia. In addition, the GI50 in the assay on A549 NSCLC was 13.5 µM; in the assay on UACC-62 melanoma, 16.7 µM; in the assay on SF-539 CNS it was 21.3 µM; in the assay on PC-3 prostate, 29.4 µM. The TGI in the assay on NCI-H522 lung is more than 100 µM; in the assay on SK-MEL-2 melanoma, more than 100 µM; in the assay on CAKI-1 renal, 36.6 µM; in the assay on DU-145 prostate, 37.7 µM; in the assay with BT-549 breast, 44.1 µM; in the assay on HL-60(TB) leukemia, more than 100 µM. The TGI was 30.9 µM in the assay on A549 NSCLC, 31.8 µM in the assay on UACC-62 melanoma, 40 µM with SF-539 CNS and more than 100 µM with PC-3 prostate.
For `O=C(O)CCCCCNC(=O)CCC(CN(CC(=O)OCc1ccccc1)CC(=O)OCc1ccccc1)N(CC(=O)OCc1ccccc1)CC(=O)OCc1ccccc1` (stereo not given), the TGI with NCI-H522 lung turned out to be 42.1 µM; in the assay with SK-MEL-2 melanoma it was 32 µM; in the assay on CAKI-1 renal, 33.3 µM; with DU-145 prostate, 33.7 µM; in the assay with BT-549 breast, 33.1 µM; in the assay with HL-60(TB) leukemia it was 32.8 µM. In addition, the TGI in the assay with A549 NSCLC was found to be 33.2 µM; with UACC-62 melanoma, 30.4 µM; in the assay with SF-539 CNS, 37.9 µM; with PC-3 prostate it was 32.4 µM.
Consider `COC(=O)C(I(OS(=O)(=O)c1ccc(C)cc1)c1ccccc1)=P(c1ccccc1)(c1ccccc1)c1ccccc1`, for which the TGI was 27.7 µM in the assay on NCI-H522 lung; 36.4 µM in the assay on SK-MEL-2 melanoma; more than 100 µM with CAKI-1 renal; 32.4 µM in the assay with DU-145 prostate; 45.5 µM with BT-549 breast; 45.5 µM with HL-60(TB) leukemia. Moreover, the TGI in the assay on A549 NSCLC is 60.6 µM; with UACC-62 melanoma it was 35.1 µM; with SF-539 CNS it was 34.9 µM; with PC-3 prostate, 62 µM.
As to `COc1cccc(C(=O)C(O)c2cccc(OC)c2OC)c1OC` (stereo not given), the TGI in the assay on NCI-H522 lung, with SK-MEL-2 melanoma, in the assay with CAKI-1 renal, in the assay on DU-145 prostate, in the assay with BT-549 breast and in the assay on HL-60(TB) leukemia was more than 100 µM in each case. Moreover, the TGI with A549 NSCLC, in the assay on UACC-62 melanoma, in the assay on SF-539 CNS and with PC-3 prostate was more than 100 µM each time.
As to `Cc1cc(C)n(CN(Cn2nc(C)cc2C)c2ccc(N(Cn3nc(C)cc3C)Cn3nc(C)cc3C)cc2)n1`, the TGI in the assay on NCI-H522 lung was 42.5 µM; in the assay with SK-MEL-2 melanoma, 50.1 µM; in the assay on CAKI-1 renal, 62.4 µM; in the assay on DU-145 prostate, 58.3 µM; in the assay on BT-549 breast it was 39.2 µM; with HL-60(TB) leukemia, more than 100 µM. Also, the TGI in the assay with A549 NSCLC is 89.1 µM; in the assay on UACC-62 melanoma, 44.9 µM; in the assay with SF-539 CNS, 35.3 µM; in the assay on PC-3 prostate it was 74.6 µM.
Consider `CC(C)(C)OC(=O)N1CC(COS(C)(=O)=O)c2ccc(O)cc21` (stereo not given), for which the TGI in the assay on NCI-H522 lung is 2.39 µM; in the assay with SK-MEL-2 melanoma it was 2.9 µM; in the assay on CAKI-1 renal it was 9.62 µM; with DU-145 prostate, 3.53 µM; in the assay with BT-549 breast, 3.58 µM; in the assay with HL-60(TB) leukemia, 3.98 µM. In addition, the TGI in the assay on A549 NSCLC turned out to be 10.7 µM; in the assay on UACC-62 melanoma, 3.2 µM; in the assay on SF-539 CNS, 3.84 µM; with PC-3 prostate, 3.83 µM.
Turning to `COCN1C(=O)[C@@H]2C[C@@H](OC/C=C/CBr)CN2C(=O)c2ccccc21`, the TGI with NCI-H522 lung was 25.9 µM; with SK-MEL-2 melanoma, more than 100 µM; in the assay on CAKI-1 renal it was 38.7 µM; in the assay with DU-145 prostate it was 43.9 µM; with BT-549 breast it was more than 100 µM; with HL-60(TB) leukemia it was more than 100 µM. For the same compound, the TGI in the assay with A549 NSCLC came out at 35.5 µM; with UACC-62 melanoma, 71.5 µM; in the assay with SF-539 CNS it was 40.8 µM; with PC-3 prostate, 51.8 µM.
Take `CN(C)/C=C/c1ccnc2c1C(=O)c1ccccc1C2=O`: the TGI with NCI-H522 lung was 24.2 µM; with SK-MEL-2 melanoma, 18.3 µM; in the assay with CAKI-1 renal, 50.8 µM; with DU-145 prostate, 3.41 µM; with BT-549 breast, 14.9 µM; in the assay on HL-60(TB) leukemia, more than 55.5 µM. The TGI was more than 56.7 µM in the assay with A549 NSCLC, 2.9 µM with UACC-62 melanoma, 39.5 µM in the assay on SF-539 CNS and 56.7 µM with PC-3 prostate.
